Experimental data: patent US20250099530A1, “COMPOUND FOR USE IN PREVENTING AND/OR TREATING AN INFECTION CAUSED BY SARS-COV-2” (priority 2022, published 2025)
Entries after “also recorded” stand apart in the source; their conditions may differ.

Legend:
SIV = details: SIV-infected rhesus macaques; cited from earlier work
HIV = details: cited from earlier work
caspase = details: cited from earlier work
SARS-CoV-2 [1] = experiment: Antiviral activity, full treatment: Spike staining by flow cytometry and western blot of S and N proteins in infected cells; assay type: cell-based, SARS-CoV-2 strain BetaCoV/France/IDF0372/2020
Method: A) Vero E6/TMPRSS2 cells non infected or infected with the SARS-CoV-2 at MOI 0.05 were incubated with different concentrations of QVDM-OPh (10, 25, 50, 100 μM), Vx765 (25 μM) or Remdesivir (10 μM) for 1 h, before the infection. Afterwards, the cells were cultured with drug-containing medium until the end of the experiment (Full treatment) without removing the virus from the culture. After 72 h post-infection, cells were collected and stained for mortality and infection rate analysis. The % of infection is represented in each plot of analysis.
B) Results represent the % of infection detected by the Spike protein staining in the different infected and treated cells compared to the infected untreated group. Results represent mean+/−SD of 4 independent experiments with 3 independent points for each condition separately. Statistical significance was assessed applying One-way ANOVA test followed by Dunnett's post-hoc test using GraphPad Prism software (GraphPad Software Inc., USA). (****P<0.0001).
A-B) Vero E6/TMRPSS2 cells were pre-treated with QVDM-OPh peptide or Remdesivir at the indicated concentrations for 1 h, before the infection with the virus at MOI=0.05. Afterwards, the cells were cultured with drug-containing medium until the end of the experiment (Full treatment). A well with non-infected cells was performed as a negative control of the infection. At 72 h post-infection, cells were lysed by RIPA buffer and western blot analysis was performed to detect the expression of the Spike protein (S), the full length and S1 domain, and the Nucleocapsid protein (N). GAPDH was used as loading control. Results represent mean±SD, from 4 independent experiments with 3 independent points per condition.
To evaluate the toxicity of the QVDM-OPh on Vero E6 Cells and the antiviral efficacy, the percentage of mortality and the percentage of infected cells were measured by flow cytometry. Cells were cultured overnight in 24-well cell-culture petri-dish with a density of 75×10^4 cells/well. The next day, cells were pretreated or not for 1 h with the different doses of the indicated QVDM-OPh, Vx765 or Remdesivir at different concentrations. Then, the virus was subsequently added at MOI 0.05 to allow infection for 2 h in 250 μl/well. Afterwards, complete media was added to cell culture to a final volume of 500 μl/well. Drugs were added each day at same concentration to cell culture. At 72 h post-infection, the cell supernatant was collected and frozen immediately at −80° C. for viral extraction and qRT-PCR amplification. The cells were collected and a part thereof was used to flow cytometry analysis to measure the rate of infection using an intracellular staining against Spike protein (SARS-CoV-2 Spike Protein-Alexa 647, Cat no. 51-6490-82, eBioscience) and a Cytofix/cytoperm fixation permeabilization kit (Cat no. 554714, BD) according to the manufacturer's instructions. Toxicity was analysed using Viability 405/452 Fixable Dye (Cat no. 130-109-814, from Miltenyi Biotec) according to the manufacturer's instructions. […] After the staining, the cells were fixed with 2% Paraformaldehyde (FPA) and then analyzed on a Fortessa Flow Cytometer. 30 000 events were recorded for each condition in triplicate. […] The other part of the cells was lysed in RIPA lysis buffer (Invitrogen, Cat no. 10230544) containing protease (Roche) and phosphatase inhibitors (Invitrogen) for further quantification and immunoblotting analysis, or in LBP buffer for RNA purification and RT-qPCR analysis. […]

SARS-CoV-2 [2] = experiment: COVID-19 golden Syrian hamster model; assay type: in vivo; details: for viral replication decrease in the lungs compared to vehicle / viral load and viral replication in the lungs: 10 mg/kg IP on Day 0 (t+1 h) and Day 1, lungs at 2 dpi; for viral load and viral replication in the lungs: versus untreated groups; for clinical scores and body weight change vs Day 0: 10 mg/kg IP on Day 0 (t+1 h) and Day 1, versus infected untreated group
SARS-CoV-2 [3] = experiment: Virus yield in infected cell supernatants by qRT-PCR (N and NSP6 genes); assay type: cell-based, SARS-CoV-2 strain BetaCoV/France/IDF0372/2020
SARS-CoV-2 [4] = experiment: Intracellular qRT-PCR of SARS-CoV-2 S, N and NSP6 genes in infected cells, full treatment; assay type: cell-based, SARS-CoV-2 strain BetaCoV/France/IDF0372/2020; details: 72 h post-infection, normalized to GAPDH
SARS-CoV-2 [5] = details: cited from earlier work
[6] = Severe acute respiratory syndrome coronavirus 2, 72 h, read-out: inhibition of the viral replication
[7] = full treatment, 72 h post-infection

| Compound | AIDS disease progression (SIV) | HIV viral replication (HIV) | caspase inhibitory activity (caspase) | control of SARS-CoV-2 infection in vitro (SARS-CoV-2 [1]; 25 μM and 50 μM) | inhibition at 10 µM (SARS-CoV-2 [1]; [6]) [%] | inhibition at 25 µM (SARS-CoV-2 [1]; [6]) [%] | inhibition at 50 µM (SARS-CoV-2 [1]; [6]) [%] | reduction of viral replication compared with Remdesivir (SARS-CoV-2 [1]; [7]) | viral replication decrease in the lungs compared to vehicle (SARS-CoV-2 [2]) [%] | viral load and viral replication in the lungs (SARS-CoV-2 [2]) | clinical scores and body weight change vs Day 0 (SARS-CoV-2 [2]) | SARS-CoV-2 in the supernatant (N and NSP6 gene qRT-PCR) (SARS-CoV-2 [3]; [7]) | inhibition of secretion/production of the virus from the cell to the media, compared with QVD-OPh (SARS-CoV-2 [3]; identical concentration, full treatment and post-entry (FIGS. 5 and 9)) | toxicity (Vero E6/TMPRSS2 cells; 25 μM and 50 μM) | toxicity effect on Vero E6/TMPRSS2 cells (Vero E6/TMPRSS2 cells; different concentrations (25, 50, 100 μM each day), cells infected or not at MOI 0.05, 72 h post-infection) | relative expression of the Spike, Nucleocapsid and NSP6 genes inside the cells (SARS-CoV-2 [4]) | control of an in vitro infection caused by SARS-CoV-2 (SARS-CoV-2 [5]) | toxicity (SARS-CoV-2 [5]; in vitro) |
| --- | --- | --- | --- | --- | --- | --- | --- | --- | --- | --- | --- | --- | --- | --- | --- | --- | --- | --- |
| CC(C)C(NC(=O)c1ccc2ccccc2n1)C(=O)NC(CC(=O)O)C(=O)COc1c(F)cccc1F (stereo not shown) [QVD-OPh] | AIDS disease progression is prevented | inhibits also the viral replication; also recorded: same anti-viral effect | broad caspase inhibitor | – | – | – | – | – | – | – | – | – | – | – | – | – | – | – |
| COC(=O)CC(NC(=O)C(NC(=O)c1ccc2ccccc2n1)C(C)C)C(=O)COc1c(F)cccc1F (stereo not shown) [QVDM-OPh] | – | same anti-viral effect | pan-caspase inhibitor | highly effective | ~50 | ~70 | ~99 | comparable | 70 | significant reduction | encouraging results | significantly reduce | more efficiently than QVD-OPh | without any toxicity | no toxicity effect | reduce significantly | – | – |
| CC(C)C(NC(=O)c1ccc2ccccc2n1)C(=O)NC(CCC(=O)O)C(=O)COc1c(F)cccc1F (stereo not shown) [QVE-OPh] | – | same anti-viral effect | no caspase inhibitory activity | – | – | – | – | – | 52 | significant reduction | encouraging results | – | – | – | – | – | highly effective | without any toxicity |
